# Experimental data from patent publication US10258613B2, “Compositions for treating retinal degeneration and methods of production and use thereof” (The Board of Regents of the University of Oklahoma, priority 2014, dated 2019).
# “Also recorded” adds a separate entry of the source.
# Legend:
# cones in Rpe65−/− mice = assay: Cone density after intravitreal injection of TR antagonists; type: in vivo, mouse; settings: for cone death, in words: intravitreal delivery; for cone density increase: intravitreal injection at P5 (1.0 μl of 5 mM NH-3 or 10 mM 1-850), collected P24; for cone protection, in words: intravitreal injection at P5, P24, PNA staining
# Procedure: (§1) The cornea and lens were then removed, and the eyes were fixed in 4% PFA in PBS (vol/vol) at room temperature for another 4-6 hours. […] Paraffin sections (5 μm thickness) passing vertically through the retina (along the vertical meridian passing through the optic nerve head) were prepared using a Leica microtome.
# Briefly, retinal whole mounts or sections were blocked in Hank's balanced salt solution containing 5% bovine serum albumin (BSA) and 0.5% Triton-X 100 for 1 hour at room temperature. Primary antibody incubation (anti-M-opsin, 1:500; anti-S-opsin, 1:500; anti-CAR, 1:500; and anti-GNAT2, 1:500) was performed at room temperature for 1 hour. […] PNA immunohistochemistry was performed using biotinylated PNA (1:50) and streptavidin-FITC (1:200). […] For retinal whole mounts, images were taken using a 40× objective on an Olympus microscope, approximately 1.0 mm from the optic nerve in the center of each quadrant (FIG. 1). […] Cone density on retinal cross section was evaluated by counting the number of cones present in the dorsal and ventral areas. The averages of the counts were analyzed and graphed using GraphPad Prism software (GraphPad Software, San Diego, Calif.).
# (§2) The cone precursor Weri RB-1 cell line was used to determine the antagonistic activity of the TR antagonists, NH-3 and 1-850. Expression levels of M-opsin and S-opsin in Weri cells following T3 treatment in the presence and absence of TR antagonists were analyzed by quantitative RT-PCR. […] NH-3, 1-850, or vehicle was delivered to the eye by intravitreal injection at postnatal day 5 (P5), and retinas and eyes were collected on P24. Cone survival was evaluated by examining cone density on retinal whole mounts and retinal sections by immunohistochemical approaches.
# Weri RB-1 cell line = assay: M-opsin and S-opsin expression (quantitative RT-PCR) after T3 with or without TR antagonists; type: cell-based; settings: Weri cells; for inhibition of T3-induced M-opsin expression / inhibition of the effects of T3 treatment on M-opsin and S-opsin expression: dose-dependent pattern
# Procedure: as §2
# [1] = Serum T3 levels by mouse/rat T3 ELISA in anti-thyroid- or T3-treated mice; type: in vivo; settings: for increase of serum T3 levels compared with untreated controls: around 24 hours after last injection; for concentration at 24 h: mouse, serum, sc, 0.1 μg/g body weight, T3 0.1 μg/g s.c. once each day 30 days from P1, around 24 hours after last injection
# Procedure: (§3) For anti-thyroid treatment, mother Rpe65^−/− and cpfl1 mice were treated with methimazole (MMI) (Sigma-Aldrich, St. Louis, Mo., 0.05% wt/vol) and sodium perchlorate monohydrate (PM) (Sigma-Aldrich, 1.0% wt/vol) in drinking water, beginning on the day they delivered pups and the treatment (for both mother and pups) continued for 30 days. In a separate experiment, post-weaning cpfl1 mice received MMI and PM treatment for 30 days, beginning on P25. For T3 treatment, Cngb3^−/− and Gucy2e^−/− mice received T3 (Sigma-Aldrich, 0.1 μg/g body weight, subcutaneous injection once each day) or vehicle (saline) for 30 days, beginning on P1. At the end of the treatments, blood samples were collected for measurements of serum T3 levels, and eyes and retinas were collected for evaluating cone density and cone specific protein/mRNA expression. For T3-treated mice, blood samples were collected around 24 hours after the last injection.
# Serum triiodothyronine (T3) levels were analyzed using a mouse/rat T3 ELISA kit (Calbiotech Inc., Spring Valley, Calif.) with a total T3 detection limit at 0.25 ng/ml. Briefly, 25 μl of serum samples and standards with different T3 concentrations were added into the assigned wells, the assays were performed by following the manufacturer's instructions, and the absorbance of each well was read at 450 nm (SPECTRAMAX® 190 Microplate Spectrophotometer, Molecular Devices LLC, Sunnyvale, Calif.). The standard curve was generated by using a three-parameter exponential non-linear regression in SIGMAPLOT® software (Systat Software, Inc., San Jose, Calif.), and the sample T3 concentration was then calculated according to the three-parameter exponential equation.
# cones = settings: mice; effect reversed by deletion of TRβ2 gene; cited from earlier work
# cones in Cngb3−/− mice = assay: Cone density by immunofluorescence labeling after T3 treatment; type: in vivo, mouse
# Procedure: as §3
# as §1, with “Mouse retinal whole mounts or cross sections were prepared for immunohistochemical analysis as described previously (Ding et al., 2009; and Xu et al., 2011). […] The” for “The”
# (§4) Immunohistochemical labeling of cones using antibodies against peanut agglutinin (PNA), cone opsin, cone arrestin (CAR), and guanine nucleotide-binding protein G(t) subunit alpha-2 (GNAT2) was performed as described previously (Ding et al., 2009). Briefly, retinal whole mounts or sections were blocked in Hank's balanced salt solution containing 5% bovine serum albumin (BSA) and 0.5% Triton-X 100 for 1 hour at room temperature. Primary antibody incubation (anti-M-opsin, 1:500; anti-S-opsin, 1:500; anti-CAR, 1:500; and anti-GNAT2, 1:500) was performed at room temperature for 1 hour. Following ALEXA FLUOR®-488 or -568 (Molecular Probes, Inc., Eugene, Oreg.) or FITC-conjugated secondary antibody incubation and rinses, slides were mounted and cover-slipped. PNA immunohistochemistry was performed using biotinylated PNA (1:50) and streptavidin-FITC (1:200). Fluorescent signals were imaged using an Olympus AX70 fluorescence microscope (Olympus Corp., Center Valley, Pa.) with QCapture imaging software (QImaging Corp., Surrey, BC, Canada) or an Olympus IX81-FV500 confocal laser scanning microscope (Olympus, Melville, N.Y.) (using excitation wavelengths of 543 nm for ALEXA FLUOR®-568 and 488 nm for FITC) and FLUOVIEW® imaging software (Olympus, Melville, N.Y.). Evaluation of cone density on retinal whole mounts and retinal cross-sections was performed as described previously (Xu et al., 2011; and Komeima et al., 2006). For retinal whole mounts, images were taken using a 40× objective on an Olympus microscope, approximately 1.0 mm from the optic nerve in the center of each quadrant (FIG. 1). Image scale was calibrated and cones were counted in four regions, each with dimensions of 317 μm×317 μm, using ImageJ software (ImageJ software website from National Institutes of Health, Bethesda, Md.). Cone density on retinal cross section was evaluated by counting the number of cones present in the dorsal and ventral areas. The averages of the counts were analyzed and graphed using GraphPad Prism software (GraphPad Software, San Diego, Calif.).
# cones in Gucy2e−/− mice = assay: as above; type: in vivo, mouse
# Procedure: as §3
# as §1, with “Mouse retinal whole mounts or cross sections were prepared for immunohistochemical analysis as described previously (Ding et al., 2009; and Xu et al., 2011). […] The” for “The”
# as §4
# [2] = tested on: rod photoreceptors in Gucy2e−/− mice; assay: Retinal morphometric analysis (ONL nuclei count, ONL thickness) after T3 treatment; type: in vivo, mouse
# Procedure: as §3
# as §1, with “Mouse retinal whole mounts or cross sections were prepared for immunohistochemical analysis as described previously (Ding et al., 2009; and Xu et al., 2011). […] The” for “The”
# (§5) Retina cross sections labeled with DAPI (Vector Laboratory Inc., Burlingame, Calif.) were used for morphometric analysis to evaluate outer nuclear layer (ONL) integrity/rod survival as described previously (Xu et al., 2012). In each hemisphere, the number of nuclei in the ONL and the thickness of the ONL were measured at 0.24 mm intervals in nine defined areas, starting at the optic nerve head and extending along the vertical meridian toward the dorsal and ventral ora serrata. The mean number of nuclei and ONL thickness at the dorsal and ventral locations was then calculated. In each experimental group, two-three sections from each of the retinas of three-four mice were measured. The averages of the measurements in each location were plotted, and the measurements in each hemisphere were analyzed and graphed using GraphPad Prism software (GraphPad Software, San Diego, Calif.).
# [3] = tested on: rod photoreceptors in Cngb3−/− mice; assay: as above; type: in vivo, mouse
# Procedure: as §3
# as §1, with “Mouse retinal whole mounts or cross sections were prepared for immunohistochemical analysis as described previously (Ding et al., 2009; and Xu et al., 2011). […] The” for “The”
# as §5
# [4] = T3 0.1 μg/g s.c. daily 30 days from P1
smiles,measurement,setting,value
Cc1cc(OCC(=O)O)cc(C)c1Cc1cc(C#Cc2ccc([N+](=O)[O-])cc2)c(O)c(C(C)C)c1 [NH-3],"cone death, in words",cones in Rpe65−/− mice,reduced cone death
same,cone density increase,cones in Rpe65−/− mice,about 35%
same,"cone protection, in words",cones in Rpe65−/− mice,protected cones
same,inhibition of T3-induced M-opsin expression,Weri RB-1 cell line,inhibited T3-induced M-opsin expression
same,inhibition of the effects of T3 treatment on M-opsin and S-opsin expression,Weri RB-1 cell line,inhibited
O=C(C=C1CCN(c2ccc([N+](=O)[O-])cc2)CC1)NNC(=O)Nc1cccc(C(F)(F)F)c1 [1-850],"cone death, in words",cones in Rpe65−/− mice,reduced cone death
same,cone density increase,cones in Rpe65−/− mice,about 35%
same,"cone protection, in words",cones in Rpe65−/− mice,protected cones
same,inhibition of T3-induced M-opsin expression,Weri RB-1 cell line,inhibited T3-induced M-opsin expression
same,inhibition of the effects of T3 treatment on M-opsin and S-opsin expression,Weri RB-1 cell line,inhibited
"N[C@@H](Cc1cc(I)c(Oc2ccc(O)c(I)c2)c(I)c1)C(=O)O [T3, Triiodothyronine]",increase of serum T3 levels compared with untreated controls,[1]; Cngb3−/− mice,about 8 fold
same,increase of serum T3 levels compared with untreated controls,[1]; Gucy2e−/− mice,about 6 fold
same,concentration at 24 h,[1]; Cngb3−/− mice,3.85 ± 0.55 nM
same,concentration at 24 h,[1]; Gucy2e−/− mice,3.43 ± 0.48 nM
same,M-opsin expression,Weri RB-1 cell line; T3 treatment,increased M-opsin expression
same,S-opsin expression,Weri RB-1 cell line; T3 treatment,decreased S-opsin expression
same,cone viability,cones,cause cone death
same,reduction of CAR-labeled cones vs untreated,cones in Cngb3−/− mice; [4],about 40%
same,reduction of PNA-labeled cones vs untreated,cones in Cngb3−/− mice; [4],about 30%
same,M-opsin labeled-cones vs untreated controls,cones in Cngb3−/− mice; T3 30 days from P1,greatly reduced
same,S-opsin labeled-cones vs untreated controls,cones in Cngb3−/− mice; T3 30 days from P1,greatly reduced
same,"cone degeneration / cone density, in words",cones in Cngb3−/− mice; T3 30 days from P1,significantly increased; also recorded: significantly reduced; also recorded: deteriorated cones
same,cone density decrease,cones in Cngb3−/− mice; summary statement,about 40%
same,reduction of density of cones labeled by CAR vs untreated controls,cones in Gucy2e−/− mice; [4],about 30%
same,reduction of density of cones labeled by PNA vs untreated controls,cones in Gucy2e−/− mice; [4],about 30%
same,reduction of density of cones labeled by cone opsin vs untreated controls,cones in Gucy2e−/− mice; [4],about 30%
same,"cone degeneration / cone density, in words",cones in Gucy2e−/− mice; T3 30 days from P1,significantly increased; also recorded: significantly diminished cone density; also recorded: deteriorated cones
same,cone density decrease,cones in Gucy2e−/− mice; summary statement,about 40%
same,reduction of average number of nuclei in the ONL vs untreated controls,[2]; T3 30 days,about 30%
same,"rod photoreceptor viability, in words",[2]; T3 30 days from P1,causes rod degeneration
same,reduction of average number of nuclei in the ONL vs untreated controls,[3]; T3 30 days,about 30%
same,"rod photoreceptor viability, in words",[3]; T3 30 days from P1,causes rod degeneration
